# In ChEMBL document CHEMBL3507680, “University of Dundee, Gates Library screen for HepG2 cell viability”:
# Test: Human HepG2 cell viability assay in 384 well format
# Type: toxicity, cell-based
# Design: dose 125 nL, time 70.5 hour; cytotoxicity at 70.5 h: concentration not given beside the values
# Conditions: HepG2 cells, read-out: Inhibition
row,SMILES,cytotoxicity at 70.5 h
1,COC[C@@H]1CCC[C@@]12CN(C(=O)N(C)C)CCO2,0.626%
2,CCOCc1cnc2n1CCN(C(=O)c1ccccc1)C2C (configuration not stated),19.2%
3,CC(=O)NCc1nnn2c1CN(c1ncc(C)cn1)CCC2,-20.5%
4,CCOCc1cnc2n1CCN(C(=O)c1cn(C)c3ccccc13)C2C (configuration not stated),8.97%
5,COCC(=O)NCc1cc(=O)n2c(n1)CN(Cc1ccco1)CCC2,2.27%
6,Cn1nc(C(=O)N2CCOCC2)c2c1CN(CC1CCC1)C2,-5.26%
7,COCC(=O)NCc1cc(=O)n2c(n1)CN(Cc1nccs1)CCC2,-5.03%
8,O=C(Cc1ccsc1)N1C[C@@H]2COC[C@]2(COc2cccnc2)C1,-6.1%
9,O=C(c1ccnnc1)N1CCC2(CC1)CCN(C(=O)c1cccnc1)C2,-0.196%
10,CNC(=O)N1CC[C@@H]2CN(Cc3cccc(OC)c3)S(=O)(=O)[C@@H]2CC1,-11.1%
11,COCCC(=O)N1CCC2(COCc3cnc(-c4cccnc4)nc32)C1 (configuration not stated),-6.92%
12,Cn1nc(COc2cccnc2)c2c1CCN(c1ncccn1)C2,-14.2%
13,CS(=O)(=O)N1C[C@@H](NC(=O)c2ccno2)[C@@H]2OCCC[C@@H]21,-12.2%
14,Cc1cnc(N2CCc3onc(COc4cccnc4)c3C2)nc1,-3.25%
15,CC(C)C(=O)N1CCC2(COCc3cnc(-c4cccnc4)nc32)C1 (configuration not stated),-7.75%
16,CN(C)S(=O)(=O)N1CCC2(COCc3cnc(-c4cccnc4)nc32)C1 (configuration not stated),-9.11%
17,CS(=O)(=O)NC[C@]12COC[C@H]1CN(C(=O)C1CCSCC1)C2,-5.88%
18,Cc1noc([C@H]2C[C@@H]3CCN(C(=O)c4cccn4C)C[C@H]3O2)n1,-3.46%
19,CCC(Nc1nc(C)nc2onc(C)c12)c1cccs1 (configuration not stated),-2.98%
20,COCc1noc(CCNC(=O)c2cc(C)c(C)[nH]c2=O)n1,-7.79%
21,CCCSCC(=O)N1CCCC(CO)(CCC)C1 (configuration not stated),-22.8%
22,O=C1CCCN1C1CCN(S(=O)(=O)CCOc2ccc(F)cc2)CC1,23.9%

row,SMILES,cytotoxicity at 70.5 h
1,CC(C)=CCN1C[C@H]2CC[C@@H]1CN(C(=O)CCc1n[nH]c(C)n1)C2,-1.3%
2,Cc1cc(C(=O)N2CCCC(c3ccc(C(=O)O)cc3)C2)c(C)o1 (configuration not stated),-17.2%
3,O=C(CN1CCOCC1)N1CCC2(CCCN(C3CCOCC3)C2=O)C1 (configuration not stated),0.199%
4,Cc1noc([C@@H]2CCCN2C(=O)C2CCN(CC(N)=O)CC2)n1,-5.63%
5,COCc1noc(-c2ccc(N(C)Cc3ccc(C)o3)nc2)n1,-2.55%
6,Cc1nc2c(c(=O)n1C)CCN(Cc1cc3cc[nH]c3cn1)CC2,10.6%
7,CC(C)CCN1CCCC(Cn2cc(CCO)nn2)C1 (configuration not stated),-2.37%
8,CC(C)Nc1cc(N2CCCC3(CN(C)C(=O)O3)C2)ncn1 (configuration not stated),15%
9,O=C(O)c1cc(-c2ccncc2)cc(S(=O)(=O)N2CCSCC2)c1,-6.71%
10,COCCc1noc(C2CCCN(c3ncnc4c3CCC4)C2)n1 (configuration not stated),-13.9%
11,Cc1cc(N[C@H]2CN(CC(C)(C)N3CCOCC3)C[C@@H]2C2CC2)ncn1,-15.4%
12,CCc1ncc(C(=O)N2CCCOC(Cn3cccn3)C2)cn1 (configuration not stated),-0.891%
13,CN(Cc1n[nH]c2c1CCC2)c1nc(C2CCCC2)nc2c1CNC2,-8.94%
14,Cn1ccnc1CN1C[C@@H](CN2CCCC2)[C@@H](CO)C1,-5.13%
15,Cn1ccnc1C1CCN(S(=O)(=O)c2ccc3oc(=O)[nH]c3c2)CC1,-9.3%
16,Cc1cnc(C)c(N2CCC(C(=O)O)(n3ccc(C(C)(C)C)n3)CC2)n1,30.8%
17,COc1cccc2ccc(CN3CCN(c4ncccn4)CC3)nc12,-5.87%
18,O=C(NCCc1csc(-c2cccnc2)n1)c1cnn2c1CCCC2,-7.57%
19,O=S(=O)(NCC1CCCN(Cc2ccccc2F)C1)C1CC1 (configuration not stated),-5.21%
20,O=C(C1CC1)N1CCc2[nH]cnc2C12CCN(C1CCOCC1)CC2,-2.02%
21,COCCN(Cc1ccc(C)cc1)Cc1nccn1C,-0.21%
22,COc1cc2c(cc1C(=O)N1CCCCC1c1ccccn1)CCC2 (configuration not stated),-24%

row,SMILES,cytotoxicity at 70.5 h
1,COc1ccc(C(=O)C2CCCN(Cc3cccc(F)c3)C2)c(OC)c1 (configuration not stated),-0.757%
2,Cc1[nH]c2ccc(CNC3CCN(Cc4ccccn4)CC3)cc2c1C,3.44%
3,CN(Cc1ccsc1)C(=O)c1ccc(C2CCCO2)s1 (configuration not stated),30.9%
4,COCC1CCN(C(=O)c2cn(Cc3cccc(C(F)(F)F)c3)nn2)C1 (configuration not stated),-12.5%
5,Cc1ccsc1CN(Cc1ncccc1C(=O)O)C1CC1,-5.62%
6,Cc1cccc(C(C(=O)N2CC(Oc3ccccc3F)C2)N(C)C)c1 (configuration not stated),-1.02%
7,FC(F)(F)CCc1ccnc(N2CCN(Cc3ccncc3)CC2)n1,-13.8%
8,CCC(C)N(Cc1cnc(NCC(=O)O)nc1)Cc1ccsc1 (configuration not stated),-7.35%
9,Cc1ccc([C@@H]2CN(C(=O)c3cc(C)no3)C[C@H]2NC(=O)C2CC2)cc1,-6.47%
10,CN(C(=O)CC1=CCCCC1)C1CCCN(C2Cc3ccccc3C2)C1 (configuration not stated),-0.808%
11,CNC(=O)[C@@H]1C[C@@H](N)CN1c1nc(N2CCCC2)nc(C)c1C,-10.2%
12,Cc1cc(C)c2c(NCCC34CCCN3CCC4)ncnc2n1,-3.78%
13,Cc1cc(C)c2ncn(CCOCCO)c(=O)c2c1,-5.3%
14,COCCC1(CO)CCCN(Cc2ccc(C(F)(F)F)cc2)C1 (configuration not stated),-4.92%
15,CC(C)(O)CCc1cccc(C(=O)N2CCC[C@H]2CN2CCCC2)c1,32.8%
16,COc1cc(OC)c(-c2nc3c([nH]2)c(C2CC2)nn3C)cc1OC,-3.1%
17,Cc1nc(CN2CCCn3nc(CNC(=O)C4CCC4)cc3C2)co1,0.506%
18,Clc1cccc2c3c([nH]c12)CCN(Cc1cc2n(n1)CCNC2)C3,22.8%
19,Cn1ncc2c(NC3CN4CCC3CC4)nc(-c3ccncc3)nc21 (configuration not stated),12%
20,CCCN(Cc1cccnc1)C(=O)C1CCNC1 (configuration not stated),-1.17%
21,CCN1CC(C(=O)NCc2noc(Cc3ccccc3)n2)CCC1=O (configuration not stated),-12.4%
22,CCN(CCCN1CCOCC1)C(=O)c1cnn(CC)c1,2.38%

row,SMILES,cytotoxicity at 70.5 h
1,Nc1ncc(C(=O)N2CCC(O)(CO)CC2)c(-c2ccccc2)n1,-15.6%
2,CN(Cc1cc2n(n1)CCN(C(=O)c1cccnc1)C2)Cc1nccs1,-12%
3,CSCCC(=O)N1C[C@H](Nc2ccnc(C)n2)[C@@H](C(C)C)C1,-23.4%
4,c1ccc(SCCN2CCCC(Cn3ccnc3)C2)cc1 (configuration not stated),-5.94%
5,CCCc1nnc(N2CCC(N3CCCC3)CC2)o1,26%
6,O=S(=O)(NCc1ccccc1)Nc1cccc(Cn2cncn2)c1,-7.79%
7,COc1ccccc1OCc1cc(C(=O)N2CCS(=O)(=O)CC2)n[nH]1,-6.21%
8,CCOc1ccnc(N2CCN(Cc3ncccc3C)CC2)n1,3.5%
9,O=C(c1cccnc1-c1ccc2c(c1)OCCO2)N1CCCC1,-8.05%
10,C[C@@H]1CN(CCOc2ccc(F)cc2)CC[C@@]1(O)C1CCOCC1,-2.42%
11,O=C(CCN1CCCC(CC2CC2)(C(=O)O)C1)NC1CCCC1 (configuration not stated),-9.72%
12,COCC1CC2(CCN(c3ccc(C)nn3)CC2)CN1C(C)C (configuration not stated),-10.4%
13,CCO[C@H]1CN(CC2CC2)[C@@H]2CCCO[C@H]12,1.44%
14,COc1cccc(CN2C[C@@H]3COC[C@]3(CNC(=O)C3CC3)C2)c1,-9.15%
15,COCC1CC2(CCN(c3cccc(C)n3)CC2)CN1c1ncccn1 (configuration not stated),-10.3%
16,O=C(c1cccnc1)N1CCC2(CCN(C(=O)c3ccco3)CC2)C1,2.92%
17,CCC1=N[C@@]2(CC[C@@H]3CN(Cc4ccc(F)cc4)C[C@@H]32)C(=O)N1C,0.293%
18,O=C(c1cccnc1)N1CCC2(CCN(C(=O)N3CCCC3)CC2)C1,-0.226%
19,CC(C)N1CCc2c(C(=O)N3CCOCC3)nn(C)c2C1,0.371%
20,COCC(=O)NC1CC2(CCN(CCO)CC2)c2ccccc21 (configuration not stated),8.06%
21,O=C(NCCc1cccs1)[C@H]1CO[C@H]2CCN(C3CCC3)C[C@H]2C1,-0.468%
22,CCC1=N[C@@]2(CC[C@@H]3CN(Cc4ccccc4C)C[C@@H]32)C(=O)N1C,0.166%

row,SMILES,cytotoxicity at 70.5 h
1,CCC1=N[C@@]2(CC[C@@H]3CN(Cc4cccc(Cl)c4)C[C@@H]32)C(=O)N1C,16.7%
2,O=C(COC1CCCC1)N1C[C@@H]2COC[C@]2(COc2cccnc2)C1,3.14%
3,O=C(NCCc1cccs1)[C@H]1CO[C@H]2CCN(CC3CC3)C[C@H]2C1,-5.6%
4,Cn1cccc1C(=O)N1CCC2(CCN(C(=O)c3cccnc3)C2)CC1,3.23%
5,CC(C)CNC(=O)N1CC[C@@H]2CN(Cc3cccnc3)S(=O)(=O)[C@@H]2CC1,-4.92%
6,O=C(CC1CC1)N1CCC2(CC1)CN(c1cccnc1)C(=O)CO2,-4.69%
7,CCS(=O)(=O)N1CCC2(CC1)CN(c1cccnc1)C(=O)CO2,-5.49%
8,CS(=O)(=O)NC[C@]12COC[C@H]1CN(CC1CCC1)C2,-12.2%
9,CN(Cc1cncnc1)[C@@H]1CN(C(=O)C2CC2)[C@@H]2CCCO[C@H]12,-3.07%
10,CN(Cc1cncnc1)[C@@H]1CN(C(=O)c2ccco2)[C@@H]2CCCO[C@H]12,-3.82%
11,CC1CCN(C(=O)[C@@H]2C[C@@H]3CCN(Cc4nccs4)C[C@H]3O2)CC1,-6.62%
12,CN(C)C(=O)[C@H]1C[C@@H]2CCN(Cc3ccoc3)C[C@@H]2O1,-13.4%
13,CCN1CCC2(CC1)CN(C(=O)c1cccnc1)c1ccc(Cl)cc12,-10.5%
14,O=C(NC[C@]12COC[C@H]1CN(Cc1cccnc1)C2)C1CCC1,-4.65%
15,Cc1ccc(CN2CC3(CCN(C(=O)c4cccnc4)C3)C2)o1,3.03%
16,Cn1nc(COc2cccnc2)c2c1CCN(CC1CC1)C2,-8.94%
17,COc1ccc(CN2CCO[C@H]3[C@H](OCc4ccncc4)CC[C@@H]32)cc1,58.1%
18,Cc1ccc(CN2CCn3cc(CN4CCN(C)CC4)nc3C2)cc1,-13.5%
19,FC1(F)CCN(Cc2ccncc2)CC12CCN(c1cccnc1)C2 (configuration not stated),2.6%
